# PubChem BioAssay AID2060902 (Molecular Pharmacology Branch, DTP, NCI, 2025)
# Test system: 485368-065-R3-J5-PDC spheroids with HUVEC/MSC, viability
# Experiment: Anticancer human tumor 485368-065-R3-J5-PDC patient-derived pancreatic carcinoma cell line growth inhibition [RAS]
# Settings: for IC50: curve of first compound; for viability, T/C: stronger effect = lower value
# Procedure, shortened: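 Agents were tested in combination matrices in half-log decrements from a top concentration at or near clinical Cmax (10 microM if undetermined). Targets were multi-cell spheroids of tumour lines plus HUVEC and MSC stromal cells.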
# [1] = second compound 0.000949 µM, first compound 0.0316 µM
# [2] = second compound 0.000949 µM, first compound 0.1 µM
# [3] = second compound 0.000949 µM, first compound 0.316 µM
# [4] = second compound 0.000949 µM, first compound 1 µM
# [5] = second compound 0.003 µM, first compound 0.0316 µM
# [6] = second compound 0.003 µM, first compound 0.1 µM
# [7] = second compound 0.003 µM, first compound 0.316 µM
# [8] = second compound 0.003 µM, first compound 1 µM
# [9] = second compound 0.00949 µM, first compound 0.0316 µM
# [10] = second compound 0.00949 µM, first compound 0.1 µM
# [11] = second compound 0.00949 µM, first compound 0.316 µM
# [12] = second compound 0.00949 µM, first compound 1 µM
# [13] = second compound 0.03 µM, first compound 0.0316 µM
# [14] = second compound 0.03 µM, first compound 0.1 µM
# [15] = second compound 0.03 µM, first compound 0.316 µM
# [16] = second compound 0.03 µM, first compound 1 µM
# [17] = second compound 0.0949 µM, first compound 0.0316 µM
# [18] = second compound 0.0949 µM, first compound 0.1 µM
# [19] = second compound 0.0949 µM, first compound 0.316 µM
# [20] = second compound 0.0949 µM, first compound 1 µM
# [21] = second compound 0.3 µM, first compound 0.0316 µM
# [22] = second compound 0.3 µM, first compound 0.1 µM
# [23] = second compound 0.3 µM, first compound 0.316 µM
# [24] = second compound 0.3 µM, first compound 1 µM
# 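Note: spheroids exposed to agents for seven days before readout.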
smiles,measurement,setting,value
CC(Nc1ccc2c(c1)OCCn1cc(N3C(=O)OCC3C(F)F)nc1-2)C(N)=O (centres undefined) + CCn1c(-c2cc(N3CCN(C)CC3)cnc2C(C)OC)c2c3cc(ccc31)-c1csc(n1)CC(NC(=O)C1CC1C)C(=O)N1CCCC(N1)C(=O)OCC(C)(C)C2,IC50,second compound 0.000949 µM,< 31.6 nM
same,IC50,second compound 0.003 µM,< 31.6 nM
same,IC50,second compound 0.00949 µM,< 31.6 nM
same,IC50,second compound 0.03 µM,< 31.6 nM
same,IC50,second compound 0.0949 µM,< 31.6 nM
same,IC50,second compound 0.3 µM,< 31.6 nM
same,"viability, T/C",[1],26.2%
same,"viability, T/C",[2],23.7%
same,"viability, T/C",[3],24.2%
same,"viability, T/C",[4],18.2%
same,"viability, T/C","second compound 0.000949 µM, first compound 3.16 µM",17.5%
same,"viability, T/C","second compound 0.000949 µM, first compound 10 µM",11.3%
same,"viability, T/C",[5],15%
same,"viability, T/C",[6],13.3%
same,"viability, T/C",[7],12.6%
same,"viability, T/C",[8],11.2%
same,"viability, T/C","second compound 0.003 µM, first compound 3.16 µM",10.1%
same,"viability, T/C","second compound 0.003 µM, first compound 10 µM",7.35%
same,"viability, T/C",[9],10.8%
same,"viability, T/C",[10],11.4%
same,"viability, T/C",[11],9.57%
same,"viability, T/C",[12],9.69%
same,"viability, T/C","second compound 0.00949 µM, first compound 3.16 µM",9.37%
same,"viability, T/C","second compound 0.00949 µM, first compound 10 µM",6.07%
same,"viability, T/C",[13],10.3%
same,"viability, T/C",[14],9.36%
same,"viability, T/C",[15],8.76%
same,"viability, T/C",[16],8.73%
same,"viability, T/C","second compound 0.03 µM, first compound 3.16 µM",7.08%
same,"viability, T/C","second compound 0.03 µM, first compound 10 µM",4.24%
same,"viability, T/C",[17],7.86%
same,"viability, T/C",[18],6.77%
same,"viability, T/C",[19],7.07%
same,"viability, T/C",[20],5.28%
same,"viability, T/C","second compound 0.0949 µM, first compound 3.16 µM",4.78%
same,"viability, T/C","second compound 0.0949 µM, first compound 10 µM",2.97%
same,"viability, T/C",[21],6.57%
same,"viability, T/C",[22],6.98%
same,"viability, T/C",[23],5.66%
same,"viability, T/C",[24],4.05%
same,"viability, T/C","second compound 0.3 µM, first compound 3.16 µM",4.16%
same,"viability, T/C","second compound 0.3 µM, first compound 10 µM",2.04%
O=C(c1ccc(F)c(F)c1Nc1ccc(I)cc1F)N1CC(O)([C@@H]2CCCCN2)C1 + CCn1c(-c2cc(N3CCN(C)CC3)cnc2C(C)OC)c2c3cc(ccc31)-c1csc(n1)CC(NC(=O)C1CC1C)C(=O)N1CCCC(N1)C(=O)OCC(C)(C)C2,IC50,second compound 0.000949 µM,< 3.16 nM
same,IC50,second compound 0.003 µM,< 3.16 nM
same,IC50,second compound 0.00949 µM,< 3.16 nM
same,IC50,second compound 0.03 µM,< 3.16 nM
same,IC50,second compound 0.0949 µM,< 3.16 nM
same,IC50,second compound 0.3 µM,< 3.16 nM
same,"viability, T/C","second compound 0.000949 µM, first compound 0.00316 µM",32.9%
same,"viability, T/C","second compound 0.000949 µM, first compound 0.01 µM",29.9%
same,"viability, T/C",[1],22.8%
same,"viability, T/C",[2],17.6%
same,"viability, T/C",[3],12.8%
same,"viability, T/C",[4],3.33%
same,"viability, T/C","second compound 0.003 µM, first compound 0.00316 µM",19.3%
same,"viability, T/C","second compound 0.003 µM, first compound 0.01 µM",20.3%
same,"viability, T/C",[5],14.9%
same,"viability, T/C",[6],10.8%
same,"viability, T/C",[7],4.68%
same,"viability, T/C",[8],1.33%
same,"viability, T/C","second compound 0.00949 µM, first compound 0.00316 µM",16.1%
same,"viability, T/C","second compound 0.00949 µM, first compound 0.01 µM",12.9%
same,"viability, T/C",[9],10.6%
same,"viability, T/C",[10],5.68%
same,"viability, T/C",[11],1.77%
same,"viability, T/C",[12],1.26%
same,"viability, T/C","second compound 0.03 µM, first compound 0.00316 µM",10.3%
same,"viability, T/C","second compound 0.03 µM, first compound 0.01 µM",8.49%
same,"viability, T/C",[13],6.41%
same,"viability, T/C",[14],2.18%
same,"viability, T/C",[15],1.53%
same,"viability, T/C",[16],1.44%
same,"viability, T/C","second compound 0.0949 µM, first compound 0.00316 µM",6.98%
same,"viability, T/C","second compound 0.0949 µM, first compound 0.01 µM",5.08%
same,"viability, T/C",[17],3%
same,"viability, T/C",[18],1.9%
same,"viability, T/C",[19],1.88%
same,"viability, T/C",[20],1.97%
same,"viability, T/C","second compound 0.3 µM, first compound 0.00316 µM",6.37%
same,"viability, T/C","second compound 0.3 µM, first compound 0.01 µM",3.9%
same,"viability, T/C",[21],2.16%
same,"viability, T/C",[22],2.03%
same,"viability, T/C",[23],2.03%
same,"viability, T/C",[24],2.14%
